Measurements reported in article PMC12072072 (International Journal of Molecular Sciences, 2025).

Legend:
[1] = system: SKOV-3 (human ovarian carcinoma); details: MTT assay, SKOV-3 cells; published earlier; ref [41]; read-out: IC50 [μM] (±s) SKOV-3; cited from earlier work
[2] = system: HDFs (human dermal fibroblasts); details: MTT assay, published earlier, ref [41], read-out: IC50 [μM] (±s) HDFs; cited from earlier work
[3] = system: CHO (Chinese hamster ovary); assay: MTT assay, CHO cells; assay type: cell-based; details: Cricetulus griseus, CHO, MTT assay, CHO cells, value (standard deviation); read-out: IC50 [μM] (±s) CHO
Method: Each medium was supplemented with 10% fetal bovine serum, 1% L-glutamine, and 1% penicillin/streptomycin solution. The cell lines were incubated at 37 °C in a humidified atmosphere containing 5% CO2. Cells were counted using the Fuchs–Rosenthal counting chamber (hemocytometer) with modifications.
The final product of this reaction gives violet formazan crystals. The number of live cells is proportional to the amount of formazan and is represented by the violet dye reagent. The details of the experiments are given, e.g., in [54].
Statistical analyses for the cytotoxic activity were carried out using the nonparametric Kruskal–Wallis H test for unpaired data and ANOVA Friedman two-way analysis of variance test for paired data. Statistical significance was tested using Dunn’s post-hoc test. The IC50 values compared to the control IC50 were calculated using GraphPad Prism v. 10.1.1. software.

For `CC1(C)CC[C@]2(C(=O)O)CC[C@]3(C)C(=CC[C@@H]4[C@@]5(C)CC[C@H](O)C(C)(C)[C@@H]5CC[C@]43C)[C@@H]2C1` [Compound 1, oleanolic acid], the IC50 [1] is listed as 18.8 µM, the IC50 [2] is listed as 24.9 µM and the IC50 [3] is listed as 9.16 µM.
